# Results from PubChem BioAssay AID328 (DTP/NCI, 2004).
# “And” between values parts separate entries of the source, which are not always exact repeats. Identical values can stand only once. Toxic doses and inconclusive results are not listed.
# System: BDF1 mice, P388 leukemia ip, median survival T/C
# Assay: NCI In Vivo Anticancer Drug Screen. Data for tumor model P388 Leukemia (intraperitoneal) in B6D2F1 (BDF1) mice
# Settings: endpoint: median survival time, higher = longer survival
# Outline: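 Vehicle-dosed animals serve as the reference; survival of compound-dosed, tumour-implanted mice is divided by it.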
# [1] = dose: 100.0 mg/kg/injection, schedule: Q01DX009 (ip), vehicle: saline with Tween-80
# [2] = dose: 100.0 mg/kg/injection, schedule: Q04DX003 (ip), vehicle: saline with Tween-80
# [3] = dose: 200.0 mg/kg/injection, schedule: Q01DX009 (ip), vehicle: saline with Tween-80
# [4] = dose: 200.0 mg/kg/injection, schedule: Q04DX003 (ip), vehicle: saline with Tween-80
# [5] = dose: 400.0 mg/kg/injection, schedule: Q04DX003 (ip), vehicle: saline with Tween-80
# [6] = dose: 100.0 mg/kg/injection, schedule: Q01DX009 (ip), vehicle: Klucel (hydroxypropylcellulose) (HPC)
# [7] = dose: 100.0 mg/kg/injection, schedule: Q04DX003 (ip), vehicle: Klucel (hydroxypropylcellulose) (HPC)
# [8] = dose: 200.0 mg/kg/injection, schedule: Q01DX009 (ip), vehicle: Klucel (hydroxypropylcellulose) (HPC)
# [9] = dose: 200.0 mg/kg/injection, schedule: Q04DX003 (ip), vehicle: Klucel (hydroxypropylcellulose) (HPC)
# [10] = dose: 400.0 mg/kg/injection, schedule: Q01DX009 (ip), vehicle: Klucel (hydroxypropylcellulose) (HPC)
# [11] = dose: 400.0 mg/kg/injection, schedule: Q04DX003 (ip), vehicle: Klucel (hydroxypropylcellulose) (HPC)
# [12] = dose: 50.0 mg/kg/injection, schedule: Q01DX009 (ip), vehicle: Klucel (hydroxypropylcellulose) (HPC)
compound,measurement,setting,value
CCOC(=O)c1cnc2ccc(OC)cc2c1Cl,T/C,"dose: 50.0 mg/kg/injection, schedule: Q01DX009 (ip), vehicle: saline with Tween-80",95 % of control
same,T/C,"dose: 50.0 mg/kg/injection, schedule: Q04DX003 (ip), vehicle: saline with Tween-80",91 % of control
same,T/C,[1],111 % of control
same,T/C,[2],103 % of control
same,T/C,[3],99 % of control
same,T/C,[4],103 % of control
same,T/C,"dose: 400.0 mg/kg/injection, schedule: Q01DX009 (ip), vehicle: saline with Tween-80",96 % of control
same,T/C,[5],95 % of control
CC(=O)c1c(O)c(C)c(O)c2c1OC1=CC(=O)C(C(C)=O)C(=O)C12C (stereo not given),T/C,"dose: 5.0 mg/kg/injection, schedule: Q01DX009 (ip), vehicle: gum acacia",100 % of control and 103 % of control
same,T/C,"dose: 10.0 mg/kg/injection, schedule: Q01DX009 (ip), vehicle: gum acacia",105 % of control and 108 % of control
same,T/C,"dose: 20.0 mg/kg/injection, schedule: Q01DX009 (ip), vehicle: gum acacia",107 % of control
same,T/C,"dose: 35.0 mg/kg/injection, schedule: Q01DX010 (ip), vehicle: saline",116 % of control
same,T/C,"dose: 40.0 mg/kg/injection, schedule: Q01DX009 (ip), vehicle: gum acacia",96 % of control and 105 % of control
same,T/C,"dose: 53.0 mg/kg/injection, schedule: Q01DX010 (ip), vehicle: saline",122 % of control
same,T/C,"dose: 79.0 mg/kg/injection, schedule: Q01DX010 (ip), vehicle: saline",122 % of control
same,T/C,"dose: 80.0 mg/kg/injection, schedule: Q01DX009 (ip), vehicle: gum acacia",103 % of control and 108 % of control
O=c1oc(-c2cc([N+](=O)[O-])ccc2Cl)nc2ccccc12,T/C,"dose: 25.0 mg/kg/injection, schedule: Q04DX003 (ip), vehicle: saline with Tween-80",95 % of control
same,T/C,[2],95 % of control
Cc1ccc(C)c(Cc2c(C=O)[nH]c(=S)[nH]c2=O)c1,T/C,[2],100 % of control
same,T/C,[4],109 % of control
same,T/C,[5],122 % of control
O=C(NCCN1CC1)C(=O)NCCN1CC1,T/C,"dose: 1.56 mg/kg/injection, schedule: Q04DX003 (ip), vehicle: saline with Tween-80",250 % of control
same,T/C,"dose: 3.12 mg/kg/injection, schedule: Q04DX003 (ip), vehicle: saline with Tween-80",173 % of control
same,T/C,"dose: 6.25 mg/kg/injection, schedule: Q04DX003 (ip), vehicle: saline with Tween-80",105 % of control
CC(=O)N(C)c1ccc(/C=C2\C=Cc3ccccc32)cc1,T/C,[1],100 % of control
same,T/C,[2],90 % of control
same,T/C,[3],95 % of control
same,T/C,[4],100 % of control
C=C(C)C12OC3(c4ccccc4)OC1C1C4OC4(CO)C(O)C4(O)C(=O)C(C)=CC4C1(O3)C(C)C2OC(=O)/C=C/C=C/c1ccccc1 (stereo not given),T/C,"dose: 0.01 mg/kg/injection, schedule: Q01DX009 (ip), vehicle: saline + alcohol",115 % of control
same,T/C,"dose: 0.02 mg/kg/injection, schedule: Q01DX009 (ip), vehicle: saline + alcohol",94 % of control
same,T/C,"dose: 0.03 mg/kg/injection, schedule: Q01DX009 (ip), vehicle: saline + alcohol",123 % of control
same,T/C,"dose: 0.5 mg/kg/injection, schedule: Q01DX009 (ip), vehicle: saline + alcohol",156 % of control
same,T/C,"dose: 3.1 micrograms/kg/injection, schedule: Q01DX009 (ip), vehicle: saline + alcohol",123 % of control
same,T/C,"dose: 6.0 micrograms/kg/injection, schedule: Q01DX009 (ip), vehicle: saline + alcohol",101 % of control
same,T/C,"dose: 6.3 micrograms/kg/injection, schedule: Q01DX009 (ip), vehicle: saline + alcohol",104 % of control
same,T/C,"dose: 12.5 micrograms/kg/injection, schedule: Q01DX009 (ip), vehicle: saline + alcohol",123 % of control
same,T/C,"dose: 25.0 micrograms/kg/injection, schedule: Q01DX009 (ip), vehicle: gum acacia",121 % of control
same,T/C,"dose: 25.0 micrograms/kg/injection, schedule: Q01DX009 (ip), vehicle: saline + alcohol",124 % of control
same,T/C,"dose: 25.0 micrograms/kg/injection, schedule: Q01DX009 (ip), vehicle: saline with Tween-80",200 % of control
same,T/C,"dose: 50.0 micrograms/kg/injection, schedule: Q01DX009 (ip), vehicle: gum acacia",90 % of control
same,T/C,"dose: 50.0 micrograms/kg/injection, schedule: Q01DX009 (ip), vehicle: saline + alcohol",155 % of control
same,T/C,"dose: 50.0 micrograms/kg/injection, schedule: Q01DX009 (ip), vehicle: saline with Tween-80",92 % of control
same,T/C,"dose: 100.0 micrograms/kg/injection, schedule: Q01DX009 (ip), vehicle: saline with Tween-80",88 % of control
CCCCOC1CC2c3ccccc3C1c1cccc[n+]12 (stereo not given),T/C,"dose: 6.25 mg/kg/injection, schedule: Q01DX009 (ip), vehicle: saline",95 % of control
same,T/C,"dose: 12.5 mg/kg/injection, schedule: Q01DX009 (ip), vehicle: saline",109 % of control
same,T/C,"dose: 18.75 mg/kg/injection, schedule: Q04DX003 (ip), vehicle: saline",100 % of control
same,T/C,"dose: 25.0 mg/kg/injection, schedule: Q01DX009 (ip), vehicle: saline",122 % of control
same,T/C,"dose: 37.5 mg/kg/injection, schedule: Q04DX003 (ip), vehicle: saline",95 % of control
COC(OC)c1nc(N)[nH]c(=O)c1Cc1ccc(Br)cc1,T/C,[2],95 % of control
same,T/C,[4],104 % of control
same,T/C,[5],100 % of control
CC1SC(N)=NC1=O (stereo not given),T/C,[6],100 % of control
same,T/C,[7],109 % of control
same,T/C,[8],109 % of control
same,T/C,[9],86 % of control
same,T/C,[10],100 % of control
same,T/C,[11],109 % of control
CC(=O)N1c2ccccc2C23CCN4CC5=CCOC(O)C(C5CC42)C13 (stereo not given),T/C,"dose: 30.0 mg/kg/injection, schedule: Q01DX009 (ip), vehicle: saline",152 % of control
Cc1ccc2[nH]c(=S)[nH]c(=S)c2c1,T/C,[2],108 % of control
same,T/C,[4],95 % of control
same,T/C,[5],108 % of control
CC(C)(C)OC(=O)NC(CC(Cc1ccccc1)C(=O)O)C(=O)NC(CC(Cc1ccccc1)C(=O)O)C(=O)NC(CC(Cc1ccccc1)C(=O)O)C(=O)NCC(=O)Oc1ccc([N+](=O)[O-])cc1 (stereo not given),T/C,"dose: 50.0 mg/kg/injection, schedule: Q01DX005 (ip), vehicle: saline with Tween-80",86 % of control
same,T/C,"dose: 200.0 mg/kg/injection, schedule: Q01DX005 (ip), vehicle: saline with Tween-80",104 % of control
COc1ccc(CSc2ncnc3nc[nH]c23)cc1,T/C,[1],95 % of control
same,T/C,[2],100 % of control
same,T/C,[4],100 % of control
same,T/C,[5],87 % of control
COc1ccc2c(OC)c3ccoc3nc2c1OC,T/C,"dose: 1.57 mg/kg/injection, schedule: Q01DX009 (ip), vehicle: Klucel (hydroxypropylcellulose) (HPC)",89 % of control
same,T/C,"dose: 3.13 mg/kg/injection, schedule: Q01DX009 (ip), vehicle: Klucel (hydroxypropylcellulose) (HPC)",89 % of control
same,T/C,"dose: 6.25 mg/kg/injection, schedule: Q01DX009 (ip), vehicle: Klucel (hydroxypropylcellulose) (HPC)",101 % of control
O=C(Nc1cc(Cl)c(NC(=O)c2ccccc2)c(Cl)c1)c1ccccc1,T/C,"dose: 12.5 mg/kg/injection, schedule: Q01DX001 (ip), vehicle: saline with Tween-80",100 % of control
same,T/C,"dose: 25.0 mg/kg/injection, schedule: Q01DX001 (ip), vehicle: saline with Tween-80",90 % of control and 95 % of control
same,T/C,"dose: 50.0 mg/kg/injection, schedule: Q01DX001 (ip), vehicle: saline with Tween-80",90 % of control
same,T/C,"dose: 100.0 mg/kg/injection, schedule: Q01DX001 (ip), vehicle: saline with Tween-80",95 % of control
O=C(Nc1ccc(Nc2ccncc2)cc1)c1ccc([N+](=O)[O-])cc1,T/C,[7],90 % of control
same,T/C,[9],90 % of control
same,T/C,[11],118 % of control
CCCCCCC(O)CCc1ccccc1 (stereo not given),T/C,"dose: 100.0 mg/kg/injection, schedule: Q01DX001 (ip), vehicle: Klucel (hydroxypropylcellulose) (HPC)",100 % of control
same,T/C,"dose: 200.0 mg/kg/injection, schedule: Q01DX001 (ip), vehicle: Klucel (hydroxypropylcellulose) (HPC)",95 % of control
same,T/C,"dose: 400.0 mg/kg/injection, schedule: Q01DX001 (ip), vehicle: Klucel (hydroxypropylcellulose) (HPC)",104 % of control
Cc1ccc(S(=O)(=O)NCC(C)C)cc1,T/C,[12],94 % of control
same,T/C,[6],86 % of control
same,T/C,[8],104 % of control
same,T/C,[10],102 % of control
Clc1nc2nc(C(Cl)(Cl)Cl)[nH]c2nc1Cl,T/C,"dose: 12.5 mg/kg/injection, schedule: Q01DX009 (ip), vehicle: Klucel (hydroxypropylcellulose) (HPC)",95 % of control
same,T/C,"dose: 25.0 mg/kg/injection, schedule: Q01DX009 (ip), vehicle: Klucel (hydroxypropylcellulose) (HPC)",108 % of control
same,T/C,[12],116 % of control
Cc1ccc(C2(C(=O)O)CCCC2)cc1,T/C,"dose: 65.0 mg/kg/injection, schedule: Q01DX009 (ip), vehicle: Klucel (hydroxypropylcellulose) (HPC)",103 % of control
same,T/C,"dose: 150.0 mg/kg/injection, schedule: Q01DX009 (ip), vehicle: Klucel (hydroxypropylcellulose) (HPC)",94 % of control
same,T/C,[3],91 % of control
